The values that follow come from PubChem BioAssay AID1963867 (Molecular Pharmacology Branch, DTP, NCI, 2024).

SMILES strings stand for the structures.
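Note: spheroids exposed to agents for seven days before reading; 100% = DMSO vehicle wells so lower means fewer viable cells.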

The test system of the first assay is KRAS-mutant PDC tumor spheroid with HUVEC/MSC, viability. Put plainly: Anticancer human tumor 327498-153-R-J2-PDC patient-derived uterine carcinosarcoma cell line growth inhibition [KRAS2]. As to conditions: second compound 0.1 µM; first compound 1 µM; stronger effect = lower value. The method, boiled down: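 Combination screen of spheroid viability in tumor-cell co-cultures with endothelial (HUVEC) and mesenchymal stem cell stroma. Each agent was tested in half-log dilutions, topping at clinical Cmax or at 10 microM without a known Cmax.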
With `CC1COCCN1c1cc(-c2ccnn2C)c2ccnc(-c3ccn[nH]3)c2n1` (centres undefined) + COc1cc2nc(C)nc(NC(C)c3cc(N)cc(C(F)(F)F)c3)c2cc1OC1CCOC1, the viability, T/C was 4.74%.

Regarding `CC1OCC2(CCN(c3cnc(Sc4ccnc(N)c4Cl)c(N)n3)CC2)C1N` (centres undefined) + COc1cc2nc(C)nc(NC(C)c3cc(N)cc(C(F)(F)F)c3)c2cc1OC1CCOC1, the viability, T/C is 34.4%.

`CCN1CCN(Cc2ccc(Nc3ncc(F)c(-c4cc(F)c5nc(C)n(C(C)C)c5c4)n3)nc2)CC1` + COc1cc2nc(C)nc(NC(C)c3cc(N)cc(C(F)(F)F)c3)c2cc1OC1CCOC1: the viability, T/C is 49.2%.

As for `CCNC(=O)CC1N=C(c2ccc(Cl)cc2)c2cc(OC)ccc2-n2c(C)nnc21` (centres undefined) + COc1cc2nc(C)nc(NC(C)c3cc(N)cc(C(F)(F)F)c3)c2cc1OC1CCOC1, the viability, T/C is 30.5%.

In the case of `Cn1nccc1Nc1nccc(-c2cc3c(s2)C(C)(C)N(CCN2CCOCC2)C3=O)n1` + COc1cc2nc(C)nc(NC(C)c3cc(N)cc(C(F)(F)F)c3)c2cc1OC1CCOC1, the viability, T/C was 46.1%.

The assay is the same for the next values; noted with them: second compound 0.1 µM; first compound 3.16 µM; stronger effect = lower value.
`CC1COCCN1c1cc(-c2ccnn2C)c2ccnc(-c3ccn[nH]3)c2n1` (centres undefined) + COc1cc2nc(C)nc(NC(C)c3cc(N)cc(C(F)(F)F)c3)c2cc1OC1CCOC1: the viability, T/C is 4.39%.

For the compound `CC1OCC2(CCN(c3cnc(Sc4ccnc(N)c4Cl)c(N)n3)CC2)C1N` (centres undefined) + COc1cc2nc(C)nc(NC(C)c3cc(N)cc(C(F)(F)F)c3)c2cc1OC1CCOC1, the viability, T/C is 29.3%.

In the case of `CCNC(=O)CC1N=C(c2ccc(Cl)cc2)c2cc(OC)ccc2-n2c(C)nnc21` (centres undefined) + COc1cc2nc(C)nc(NC(C)c3cc(N)cc(C(F)(F)F)c3)c2cc1OC1CCOC1, the viability, T/C is 21.1%.

On to `Cn1nccc1Nc1nccc(-c2cc3c(s2)C(C)(C)N(CCN2CCOCC2)C3=O)n1` + COc1cc2nc(C)nc(NC(C)c3cc(N)cc(C(F)(F)F)c3)c2cc1OC1CCOC1, for which the viability, T/C was 44%.

Still in this assay, the particulars now being: second compound 0.1 µM; first compound 10 µM; stronger effect = lower value.
For `CC1OCC2(CCN(c3cnc(Sc4ccnc(N)c4Cl)c(N)n3)CC2)C1N` (centres undefined) + COc1cc2nc(C)nc(NC(C)c3cc(N)cc(C(F)(F)F)c3)c2cc1OC1CCOC1, the viability, T/C is 23.6%.

Turning to `CCNC(=O)CC1N=C(c2ccc(Cl)cc2)c2cc(OC)ccc2-n2c(C)nnc21` (centres undefined) + COc1cc2nc(C)nc(NC(C)c3cc(N)cc(C(F)(F)F)c3)c2cc1OC1CCOC1, the viability, T/C is 20.4%.

For `Cn1nccc1Nc1nccc(-c2cc3c(s2)C(C)(C)N(CCN2CCOCC2)C3=O)n1` + COc1cc2nc(C)nc(NC(C)c3cc(N)cc(C(F)(F)F)c3)c2cc1OC1CCOC1, the viability, T/C was 31.9%.

Staying with this assay, now noted: second compound 0.316 µM; first compound 0.00316 µM; stronger effect = lower value.
Regarding `CCN1CCN(Cc2ccc(Nc3ncc(F)c(-c4cc(F)c5nc(C)n(C(C)C)c5c4)n3)nc2)CC1` + COc1cc2nc(C)nc(NC(C)c3cc(N)cc(C(F)(F)F)c3)c2cc1OC1CCOC1, the viability, T/C is 61%.

The same assay, now with this note: second compound 0.316 µM; first compound 0.01 µM; stronger effect = lower value.
As for `CC1COCCN1c1cc(-c2ccnn2C)c2ccnc(-c3ccn[nH]3)c2n1` (centres undefined) + COc1cc2nc(C)nc(NC(C)c3cc(N)cc(C(F)(F)F)c3)c2cc1OC1CCOC1, the viability, T/C is 81.8%.

Take `CCN1CCN(Cc2ccc(Nc3ncc(F)c(-c4cc(F)c5nc(C)n(C(C)C)c5c4)n3)nc2)CC1` + COc1cc2nc(C)nc(NC(C)c3cc(N)cc(C(F)(F)F)c3)c2cc1OC1CCOC1: the viability, T/C is 48%.

The assay is the same for the next values; noted with them: second compound 0.316 µM; first compound 0.0316 µM; stronger effect = lower value.
Consider `CC1COCCN1c1cc(-c2ccnn2C)c2ccnc(-c3ccn[nH]3)c2n1` (centres undefined) + COc1cc2nc(C)nc(NC(C)c3cc(N)cc(C(F)(F)F)c3)c2cc1OC1CCOC1, for which the viability, T/C is 31.4%.

With `CC1OCC2(CCN(c3cnc(Sc4ccnc(N)c4Cl)c(N)n3)CC2)C1N` (centres undefined) + COc1cc2nc(C)nc(NC(C)c3cc(N)cc(C(F)(F)F)c3)c2cc1OC1CCOC1, the viability, T/C was 61.6%.

With `CCN1CCN(Cc2ccc(Nc3ncc(F)c(-c4cc(F)c5nc(C)n(C(C)C)c5c4)n3)nc2)CC1` + COc1cc2nc(C)nc(NC(C)c3cc(N)cc(C(F)(F)F)c3)c2cc1OC1CCOC1, the viability, T/C is 33.2%.

As for `CCNC(=O)CC1N=C(c2ccc(Cl)cc2)c2cc(OC)ccc2-n2c(C)nnc21` (centres undefined) + COc1cc2nc(C)nc(NC(C)c3cc(N)cc(C(F)(F)F)c3)c2cc1OC1CCOC1, the viability, T/C was 74%.

As for `Cn1nccc1Nc1nccc(-c2cc3c(s2)C(C)(C)N(CCN2CCOCC2)C3=O)n1` + COc1cc2nc(C)nc(NC(C)c3cc(N)cc(C(F)(F)F)c3)c2cc1OC1CCOC1, the viability, T/C is 82.8%.

Staying with this assay, now noted: second compound 0.316 µM; first compound 0.1 µM; stronger effect = lower value.
In the case of `CC1COCCN1c1cc(-c2ccnn2C)c2ccnc(-c3ccn[nH]3)c2n1` (centres undefined) + COc1cc2nc(C)nc(NC(C)c3cc(N)cc(C(F)(F)F)c3)c2cc1OC1CCOC1, the viability, T/C is 9.52%.

`CC1OCC2(CCN(c3cnc(Sc4ccnc(N)c4Cl)c(N)n3)CC2)C1N` (centres undefined) + COc1cc2nc(C)nc(NC(C)c3cc(N)cc(C(F)(F)F)c3)c2cc1OC1CCOC1: the viability, T/C is 47.5%.

With `CCN1CCN(Cc2ccc(Nc3ncc(F)c(-c4cc(F)c5nc(C)n(C(C)C)c5c4)n3)nc2)CC1` + COc1cc2nc(C)nc(NC(C)c3cc(N)cc(C(F)(F)F)c3)c2cc1OC1CCOC1, the viability, T/C was 35.9%.

`CCNC(=O)CC1N=C(c2ccc(Cl)cc2)c2cc(OC)ccc2-n2c(C)nnc21` (centres undefined) + COc1cc2nc(C)nc(NC(C)c3cc(N)cc(C(F)(F)F)c3)c2cc1OC1CCOC1: the viability, T/C was 69.1%.

With `Cn1nccc1Nc1nccc(-c2cc3c(s2)C(C)(C)N(CCN2CCOCC2)C3=O)n1` + COc1cc2nc(C)nc(NC(C)c3cc(N)cc(C(F)(F)F)c3)c2cc1OC1CCOC1, the viability, T/C was 67%.

Staying with this assay, now noted: second compound 0.316 µM; first compound 0.316 µM; stronger effect = lower value.
Regarding `CC1COCCN1c1cc(-c2ccnn2C)c2ccnc(-c3ccn[nH]3)c2n1` (centres undefined) + COc1cc2nc(C)nc(NC(C)c3cc(N)cc(C(F)(F)F)c3)c2cc1OC1CCOC1, the viability, T/C was 6.32%.

With `CC1OCC2(CCN(c3cnc(Sc4ccnc(N)c4Cl)c(N)n3)CC2)C1N` (centres undefined) + COc1cc2nc(C)nc(NC(C)c3cc(N)cc(C(F)(F)F)c3)c2cc1OC1CCOC1, the viability, T/C is 39.8%.

For `CCN1CCN(Cc2ccc(Nc3ncc(F)c(-c4cc(F)c5nc(C)n(C(C)C)c5c4)n3)nc2)CC1` + COc1cc2nc(C)nc(NC(C)c3cc(N)cc(C(F)(F)F)c3)c2cc1OC1CCOC1, the viability, T/C is 36.6%.

As to `CCNC(=O)CC1N=C(c2ccc(Cl)cc2)c2cc(OC)ccc2-n2c(C)nnc21` (centres undefined) + COc1cc2nc(C)nc(NC(C)c3cc(N)cc(C(F)(F)F)c3)c2cc1OC1CCOC1, the viability, T/C was 57.6%.

Consider `Cn1nccc1Nc1nccc(-c2cc3c(s2)C(C)(C)N(CCN2CCOCC2)C3=O)n1` + COc1cc2nc(C)nc(NC(C)c3cc(N)cc(C(F)(F)F)c3)c2cc1OC1CCOC1, for which the viability, T/C was 52.5%.

The same assay, now with this note: second compound 0.316 µM; first compound 1 µM; stronger effect = lower value.
Turning to `CC1COCCN1c1cc(-c2ccnn2C)c2ccnc(-c3ccn[nH]3)c2n1` (centres undefined) + COc1cc2nc(C)nc(NC(C)c3cc(N)cc(C(F)(F)F)c3)c2cc1OC1CCOC1, the viability, T/C is 5.51%.

For `CC1OCC2(CCN(c3cnc(Sc4ccnc(N)c4Cl)c(N)n3)CC2)C1N` (centres undefined) + COc1cc2nc(C)nc(NC(C)c3cc(N)cc(C(F)(F)F)c3)c2cc1OC1CCOC1, the viability, T/C was 32.3%.

Consider `CCN1CCN(Cc2ccc(Nc3ncc(F)c(-c4cc(F)c5nc(C)n(C(C)C)c5c4)n3)nc2)CC1` + COc1cc2nc(C)nc(NC(C)c3cc(N)cc(C(F)(F)F)c3)c2cc1OC1CCOC1, for which the viability, T/C was 41.2%.

Turning to `CCNC(=O)CC1N=C(c2ccc(Cl)cc2)c2cc(OC)ccc2-n2c(C)nnc21` (centres undefined) + COc1cc2nc(C)nc(NC(C)c3cc(N)cc(C(F)(F)F)c3)c2cc1OC1CCOC1, the viability, T/C was 27.5%.

Consider `Cn1nccc1Nc1nccc(-c2cc3c(s2)C(C)(C)N(CCN2CCOCC2)C3=O)n1` + COc1cc2nc(C)nc(NC(C)c3cc(N)cc(C(F)(F)F)c3)c2cc1OC1CCOC1, for which the viability, T/C was 47%.

Staying with this assay, now noted: second compound 0.316 µM; first compound 3.16 µM; stronger effect = lower value.
Turning to `CC1COCCN1c1cc(-c2ccnn2C)c2ccnc(-c3ccn[nH]3)c2n1` (centres undefined) + COc1cc2nc(C)nc(NC(C)c3cc(N)cc(C(F)(F)F)c3)c2cc1OC1CCOC1, the viability, T/C is 5.8%.

In the case of `CC1OCC2(CCN(c3cnc(Sc4ccnc(N)c4Cl)c(N)n3)CC2)C1N` (centres undefined) + COc1cc2nc(C)nc(NC(C)c3cc(N)cc(C(F)(F)F)c3)c2cc1OC1CCOC1, the viability, T/C is 29.6%.

As for `CCNC(=O)CC1N=C(c2ccc(Cl)cc2)c2cc(OC)ccc2-n2c(C)nnc21` (centres undefined) + COc1cc2nc(C)nc(NC(C)c3cc(N)cc(C(F)(F)F)c3)c2cc1OC1CCOC1, the viability, T/C is 23.2%.

As for `Cn1nccc1Nc1nccc(-c2cc3c(s2)C(C)(C)N(CCN2CCOCC2)C3=O)n1` + COc1cc2nc(C)nc(NC(C)c3cc(N)cc(C(F)(F)F)c3)c2cc1OC1CCOC1, the viability, T/C was 37.9%.

The assay is the same for the next values; noted with them: second compound 0.316 µM; first compound 10 µM; stronger effect = lower value.
With `CC1OCC2(CCN(c3cnc(Sc4ccnc(N)c4Cl)c(N)n3)CC2)C1N` (centres undefined) + COc1cc2nc(C)nc(NC(C)c3cc(N)cc(C(F)(F)F)c3)c2cc1OC1CCOC1, the viability, T/C is 27.8%.

Turning to `CCNC(=O)CC1N=C(c2ccc(Cl)cc2)c2cc(OC)ccc2-n2c(C)nnc21` (centres undefined) + COc1cc2nc(C)nc(NC(C)c3cc(N)cc(C(F)(F)F)c3)c2cc1OC1CCOC1, the viability, T/C is 24.2%.

Take `Cn1nccc1Nc1nccc(-c2cc3c(s2)C(C)(C)N(CCN2CCOCC2)C3=O)n1` + COc1cc2nc(C)nc(NC(C)c3cc(N)cc(C(F)(F)F)c3)c2cc1OC1CCOC1: the viability, T/C is 31.6%.

The same assay, now with this note: second compound 1 µM; first compound 0.00316 µM; stronger effect = lower value.
On to `CCN1CCN(Cc2ccc(Nc3ncc(F)c(-c4cc(F)c5nc(C)n(C(C)C)c5c4)n3)nc2)CC1` + COc1cc2nc(C)nc(NC(C)c3cc(N)cc(C(F)(F)F)c3)c2cc1OC1CCOC1, for which the viability, T/C was 51.8%.

Staying with this assay, now noted: second compound 1 µM; first compound 0.01 µM; stronger effect = lower value.
Regarding `CC1COCCN1c1cc(-c2ccnn2C)c2ccnc(-c3ccn[nH]3)c2n1` (centres undefined) + COc1cc2nc(C)nc(NC(C)c3cc(N)cc(C(F)(F)F)c3)c2cc1OC1CCOC1, the viability, T/C is 62.1%.
